In patent publication US20020137929A1, “1 - (3-heterocyclylphenyl) isothiourea, -isourea, -guanidine and -amidine herbicidal agents” (Intellectual Property Department, BASF Aktiengesellschaft, priority 1998, published 2002):

Assays:
ABUTH (Velvetleaf) = assay: Preemergence herbicidal evaluation; format: in vivo, Abutilon theophrasti; settings: preemergence, rated 4-5 weeks after treatment, 0-9 scale
Outline: (§1)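 Scores use a 0–9 visual scale covering stand, vigor, malformation, size and chlorosis relative to controls, rated four to five weeks after treatment. Before emergence, soil-planted seeds were sprayed with compound in aqueous acetone at roughly 0.0156–0.500 kg/ha and held in the greenhouse.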

[1] = test system: GLXMAW (Soybean, Williams); assay: Preemergence herbicidal evaluation; format: in vivo, Glycine max, (L.) Merr. cv Williams; settings: preemergence, rated 4-5 weeks after treatment, 0-9 scale
Outline: as §1

[2] = test system: TRZAWR (Wheat, Winter, cv Riband); assay: Preemergence herbicidal evaluation; format: in vivo, Triticum aestivum; settings: preemergence, rated 4-5 weeks after treatment, 0-9 scale
Outline: as §1

[3] = test system: SAGPY (Arrowhead (Pygmaea)); assay: Preemergence weed control under flooded paddy conditions; format: in vivo, Sagittaria pygmaea; settings: rated 3-4 weeks after treatment
Outline: (§2)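 Herbicidal effect is scored visually on a 0-9 scale against an untreated control, three to four weeks after compounds are pipetted into the flood water (1.5 to 3 cm deep) over seeds planted in silt loam at 0.5 cm depth. Rates: about 0.0313 to 0.500 kg/ha.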

GALAP (Galium) = assay: Postemergence herbicidal evaluation; format: in vivo, Galium aparine; settings: postemergence
Outline: (§3)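 Visual 0–9 rating versus control (stand, vigor, malformation, size, chlorosis, overall appearance), taken four to five weeks post-spray. Two-week-old seedlings received roughly 0.0156–0.500 kg/ha active in acetone/water (50/50) with 0.5% TWEEN 20 via nozzle at 40 psi.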

AMBEL (Ragweed, Common) = assay: Postemergence herbicidal evaluation; format: in vivo, Ambrosia artemisifolia; settings: postemergence
Outline: as §3

ZEAMX (Corn, Field) = assay: Preemergence herbicidal evaluation; format: in vivo, Zea mays; settings: preemergence, rated 4-5 weeks after treatment, 0-9 scale
Outline: as §1

ECHCG (Barnyardgrass) = assay: Preemergence herbicidal evaluation; format: in vivo, Echinochloa crus-galli; settings: preemergence, rated 4-5 weeks after treatment, 0-9 scale
Outline: as §1

CYPIR (Rice Flatsedge) = assay: Postemergence weed control under flooded paddy conditions; format: in vivo, Cyperus iria; settings: postemergence weeds, rated 3 to 4 weeks after treatment
Outline: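 Flood-water application, about 0.0313–0.500 kg/ha a.i. in aqueous/acetone 50/50 v/v; water depth 1.5–3 cm throughout. Weeds 3–5 cm, rice 1.5–2.5 leaf. Greenhouse; 0–9 visual rating vs control at 3–4 wk.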

CASOB (Sicklepod) [4] = assay: Postemergence herbicidal evaluation; format: in vivo, Cassia obtusifolia; settings: postemergence
Outline: as §3

[5] = test system: IPOHE (Morningglory, Ivyleaf); assay: Postemergence herbicidal evaluation; format: in vivo, Ipomoea hederacea; settings: postemergence
Outline: as §3

[6] = test system: IPOHE (Morningglory, Ivyleaf); assay: Preemergence herbicidal evaluation; format: in vivo, Ipomoea hederacea; settings: preemergence, rated 4-5 weeks after treatment, 0-9 scale
Outline: as §1

MOOVA (Monochoria) = assay: Preemergence weed control under flooded paddy conditions; format: in vivo, Monochoria vaginalis; settings: rated 3-4 weeks after treatment
Outline: as §2

CASOB (Sicklepod) [7] = assay: Preemergence herbicidal evaluation; format: in vivo, Cassia obtusifolia; settings: preemergence, rated 4-5 weeks after treatment, 0-9 scale
Outline: as §1

## C=CCN1C(=O)C(CC(N)=O)SC1=Nc1cc(-n2c(=O)cc(C(F)(F)F)n(C)c2=O)c(F)cc1Cl (stereo not drawn) [Compound 99, 3-Allyl-2-{{2-chloro-5-[3,6-dihydro-3-methyl-2,6-dioxo-4-(trifluoromethyl)-1(2H)-pyrimidinyl]-4-fluorophenyl}imino}-4-oxo-5-thiazolidineacetamide]
ABUTH (Velvetleaf); 0.0156 kg/ha
  ABUTH rating: 9.0
ABUTH (Velvetleaf); 0.0313 kg/ha
  ABUTH rating: 9.0
ABUTH (Velvetleaf); 0.0625 kg/ha
  ABUTH rating: 9.0
ABUTH (Velvetleaf); 0.1250 kg/ha
  ABUTH rating: 9.0
ABUTH (Velvetleaf); 0.2500 kg/ha
  ABUTH rating: 9.0
ABUTH (Velvetleaf); 0.5000 kg/ha
  ABUTH rating: 9.0
[1]; 0.0156 kg/ha
  GLXMAW rating: 0.0
[1]; 0.0313 kg/ha
  GLXMAW rating: 0.0
[1]; 0.0625 kg/ha
  GLXMAW rating: 3.0
[1]; 0.1250 kg/ha
  GLXMAW rating: 4.0
[1]; 0.2500 kg/ha
  GLXMAW rating: 7.0
[1]; 0.5000 kg/ha
  GLXMAW rating: 7.0
[2]; 0.0156 kg/ha
  TRZAWR rating: 0.0
[2]; 0.0313 kg/ha
  TRZAWR rating: 0.0
[2]; 0.0625 kg/ha
  TRZAWR rating: 1.0
[2]; 0.1250 kg/ha
  TRZAWR rating: 1.0
[2]; 0.2500 kg/ha
  TRZAWR rating: 4.0
[2]; 0.5000 kg/ha
  TRZAWR rating: 5.0
[3]; 0.0313 kg/ha
  SAGPY herbicidal effect rating: 0.0
[3]; 0.0625 kg/ha
  SAGPY herbicidal effect rating: 0.0
[3]; 0.1250 kg/ha
  SAGPY herbicidal effect rating: 3.0
[3]; 0.2500 kg/ha
  SAGPY herbicidal effect rating: 4.0
[3]; 0.5000 kg/ha
  SAGPY herbicidal effect rating: 4.0
GALAP (Galium); rate 0.0156 kg/ha
  herbicidal rating GALAP: 3.0
GALAP (Galium); rate 0.0313 kg/ha
  herbicidal rating GALAP: 6.0
GALAP (Galium); rate 0.0625 kg/ha
  GALAP herbicidal rating: 7.0
GALAP (Galium); rate 0.1250 kg/ha
  GALAP herbicidal rating: 9.0
AMBEL (Ragweed, Common); rate 0.0156 kg/ha
  herbicidal rating AMBEL: 9.0
AMBEL (Ragweed, Common); rate 0.0313 kg/ha
  herbicidal rating AMBEL: 9.0
AMBEL (Ragweed, Common); rate 0.0625 kg/ha
  AMBEL herbicidal rating: 9.0
AMBEL (Ragweed, Common); rate 0.1250 kg/ha
  AMBEL herbicidal rating: 9.0
ZEAMX (Corn, Field); 0.0156 kg/ha
  ZEAMX rating: 0.0
ZEAMX (Corn, Field); 0.0313 kg/ha
  ZEAMX rating: 0.0
ZEAMX (Corn, Field); 0.0625 kg/ha
  ZEAMX rating: 1.0
ZEAMX (Corn, Field); 0.1250 kg/ha
  ZEAMX rating: 2.0
ZEAMX (Corn, Field); 0.2500 kg/ha
  ZEAMX rating: 6.0
ZEAMX (Corn, Field); 0.5000 kg/ha
  ZEAMX rating: 7.0
ECHCG (Barnyardgrass); 0.0156 kg/ha
  ECHCG rating: 0.0
ECHCG (Barnyardgrass); 0.0313 kg/ha
  ECHCG rating: 0.0
ECHCG (Barnyardgrass); 0.0625 kg/ha
  ECHCG rating: 0.0
ECHCG (Barnyardgrass); 0.1250 kg/ha
  ECHCG rating: 1.0
ECHCG (Barnyardgrass); 0.2500 kg/ha
  ECHCG rating: 1.0
ECHCG (Barnyardgrass); 0.5000 kg/ha
  ECHCG rating: 7.0
CYPIR (Rice Flatsedge); Rate 0.0313 kg/ha
  Herbicidal rating CYPIR: 0.0
CYPIR (Rice Flatsedge); Rate 0.0625 kg/ha
  Herbicidal rating CYPIR: 0.0
CYPIR (Rice Flatsedge); Rate 0.1250 kg/ha
  Herbicidal rating CYPIR: 0.0
CYPIR (Rice Flatsedge); Rate 0.2500 kg/ha
  Herbicidal rating CYPIR: 0.0
CYPIR (Rice Flatsedge); Rate 0.5000 kg/ha
  Herbicidal rating CYPIR: 0.0
CASOB (Sicklepod) [4]; rate 0.0156 kg/ha
  herbicidal rating CASOB: 4.0
CASOB (Sicklepod) [4]; rate 0.0313 kg/ha
  herbicidal rating CASOB: 7.0
CASOB (Sicklepod) [4]; rate 0.0625 kg/ha
  CASOB herbicidal rating: 8.0
CASOB (Sicklepod) [4]; rate 0.1250 kg/ha
  CASOB herbicidal rating: 9.0
[5]; rate 0.0156 kg/ha
  herbicidal rating IPOHE: 9.0
[5]; rate 0.0313 kg/ha
  herbicidal rating IPOHE: 9.0
[5]; rate 0.0625 kg/ha
  IPOHE herbicidal rating: 9.0
[5]; rate 0.1250 kg/ha
  IPOHE herbicidal rating: 9.0
[6]; 0.0156 kg/ha
  IPOHE rating: 0.0
[6]; 0.0313 kg/ha
  IPOHE rating: 0.0
[6]; 0.0625 kg/ha
  IPOHE rating: 9.0
[6]; 0.1250 kg/ha
  IPOHE rating: 9.0
[6]; 0.2500 kg/ha
  IPOHE rating: 9.0
[6]; 0.5000 kg/ha
  IPOHE rating: 9.0
MOOVA (Monochoria); 0.0313 kg/ha
  MOOVA herbicidal effect rating: 9.0
MOOVA (Monochoria); 0.0625 kg/ha
  MOOVA herbicidal effect rating: 9.0
MOOVA (Monochoria); 0.1250 kg/ha
  MOOVA herbicidal effect rating: 9.0
MOOVA (Monochoria); 0.2500 kg/ha
  MOOVA herbicidal effect rating: 9.0
MOOVA (Monochoria); 0.5000 kg/ha
  MOOVA herbicidal effect rating: 9.0
CASOB (Sicklepod) [7]; 0.0156 kg/ha
  CASOB rating: 0.0
CASOB (Sicklepod) [7]; 0.0625 kg/ha
  CASOB rating: 1.0
CASOB (Sicklepod) [7]; 0.1250 kg/ha
  CASOB rating: 2.0
CASOB (Sicklepod) [7]; 0.2500 kg/ha
  CASOB rating: 3.0
CASOB (Sicklepod) [7]; 0.5000 kg/ha
  CASOB rating: 7.0
